Assay results taken from patent publication US12187723B2 (BRISTOL-MYERS SQUIBB COMPANY, priority 2019, dated 2025).

Assays:
[1] = target: T1, human TLR8 (Homo sapiens, UniProt Q9NR97); assay: TLR8 inhibition reporter assay (HEK-Blue SEAP); assay type: cell-based; settings: HEK-Blue cells overexpressing human TLR8, R848 15.9 μM, 22 hour incubation
T1 construct: host or cells: HEK-Blue cells
T1 sequence (Q9NR97 27-1041): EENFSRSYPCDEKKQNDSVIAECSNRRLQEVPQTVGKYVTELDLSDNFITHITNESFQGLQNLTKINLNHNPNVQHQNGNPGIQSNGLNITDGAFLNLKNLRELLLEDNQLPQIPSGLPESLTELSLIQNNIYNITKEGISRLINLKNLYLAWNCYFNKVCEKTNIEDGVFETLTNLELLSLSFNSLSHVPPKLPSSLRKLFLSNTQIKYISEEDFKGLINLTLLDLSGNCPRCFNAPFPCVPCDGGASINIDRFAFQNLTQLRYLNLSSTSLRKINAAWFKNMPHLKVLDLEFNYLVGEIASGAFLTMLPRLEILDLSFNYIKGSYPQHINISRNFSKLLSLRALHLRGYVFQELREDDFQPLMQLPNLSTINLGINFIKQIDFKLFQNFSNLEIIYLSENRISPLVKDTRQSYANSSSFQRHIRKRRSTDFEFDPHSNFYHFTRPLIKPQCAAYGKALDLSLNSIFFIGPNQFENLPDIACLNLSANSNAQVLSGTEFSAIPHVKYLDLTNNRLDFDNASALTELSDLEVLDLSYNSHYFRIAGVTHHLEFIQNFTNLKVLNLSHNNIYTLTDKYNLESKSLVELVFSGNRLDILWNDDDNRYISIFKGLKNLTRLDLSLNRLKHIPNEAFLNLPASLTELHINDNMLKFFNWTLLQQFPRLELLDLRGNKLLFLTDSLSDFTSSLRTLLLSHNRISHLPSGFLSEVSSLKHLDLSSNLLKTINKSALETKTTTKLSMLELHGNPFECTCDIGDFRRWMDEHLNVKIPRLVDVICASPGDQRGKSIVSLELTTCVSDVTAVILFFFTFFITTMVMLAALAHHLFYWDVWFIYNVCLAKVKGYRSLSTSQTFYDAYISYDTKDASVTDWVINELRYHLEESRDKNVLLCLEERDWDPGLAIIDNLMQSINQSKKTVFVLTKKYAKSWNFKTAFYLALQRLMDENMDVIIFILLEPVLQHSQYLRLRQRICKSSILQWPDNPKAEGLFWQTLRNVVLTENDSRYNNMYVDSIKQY
Method in brief: (§1)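 Dose–response from 0.05 nM to 50 μM was run in HEK-Blue human TLR7, TLR8 and TLR9 reporter cells. After 30 min at room temperature with compound, ligand was added (TLR7 gardiquimod 7.5 μM; TLR8 R848 15.9 μM; TLR9 ODN2006 5 nM) and SEAP measured next day, at 22 h.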

[2] = target: T2, human TLR9 (Homo sapiens, UniProt Q9NR96); assay: TLR9 inhibition reporter assay (HEK-Blue SEAP); assay type: cell-based; settings: HEK-Blue cells overexpressing human TLR9, ODN2006 5 nM, 22 hour incubation
T2 construct: host or cells: HEK-Blue cells
T2 sequence (Q9NR96 26-1032): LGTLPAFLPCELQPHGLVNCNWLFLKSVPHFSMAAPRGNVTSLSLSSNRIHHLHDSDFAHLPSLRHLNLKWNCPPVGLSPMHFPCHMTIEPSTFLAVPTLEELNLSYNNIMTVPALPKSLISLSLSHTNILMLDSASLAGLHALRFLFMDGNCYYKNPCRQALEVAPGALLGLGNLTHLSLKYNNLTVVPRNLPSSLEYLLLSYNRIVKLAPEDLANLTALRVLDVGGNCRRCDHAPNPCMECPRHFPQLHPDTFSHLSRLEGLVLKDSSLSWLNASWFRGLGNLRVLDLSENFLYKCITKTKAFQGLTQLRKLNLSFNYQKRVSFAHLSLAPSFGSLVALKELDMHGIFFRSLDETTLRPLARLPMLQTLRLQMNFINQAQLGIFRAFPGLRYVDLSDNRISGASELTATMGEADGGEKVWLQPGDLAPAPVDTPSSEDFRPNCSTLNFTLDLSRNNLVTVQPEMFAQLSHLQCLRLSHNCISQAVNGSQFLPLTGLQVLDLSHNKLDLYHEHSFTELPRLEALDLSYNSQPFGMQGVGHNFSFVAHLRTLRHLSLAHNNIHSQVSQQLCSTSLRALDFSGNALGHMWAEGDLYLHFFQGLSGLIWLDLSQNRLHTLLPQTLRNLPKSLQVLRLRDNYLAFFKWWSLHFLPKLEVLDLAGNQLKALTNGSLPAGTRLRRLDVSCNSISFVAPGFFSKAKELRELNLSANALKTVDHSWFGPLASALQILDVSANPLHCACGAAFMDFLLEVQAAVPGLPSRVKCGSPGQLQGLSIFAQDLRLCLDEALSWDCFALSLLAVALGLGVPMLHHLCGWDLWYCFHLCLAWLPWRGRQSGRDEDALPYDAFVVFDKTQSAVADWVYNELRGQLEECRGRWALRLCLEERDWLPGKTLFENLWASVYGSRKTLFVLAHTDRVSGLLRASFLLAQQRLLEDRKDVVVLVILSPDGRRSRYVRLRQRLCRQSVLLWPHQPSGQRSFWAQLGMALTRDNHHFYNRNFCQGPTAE
Method in brief: as §1

| Compound | IC50 [1] | IC50 [2] |
| --- | --- | --- |
| CCc1cc2c(cc1-c1cc(OC)c3ncnn3c1)[nH]c(=O)n2[C@H]1CC[C@@H](N(CC)CC)CC1 [Example 169, 1-((1s,4s)-4-(diethylamino)cyclohexyl)-6-ethyl-5-(8-methoxy-[1,2,4]triazolo[1,5-a]pyridin-6-yl)-1,3-dihydro-2H-benzo[d]imidazol-2-one] | 0.74 nM | 18300 nM |
| CCc1cc2c(cc1-c1cc(OC)c3ncnn3c1)[nH]c(=O)n2[C@H]1CC[C@@H](NC2COC2)CC1 [Example 170, 6-ethyl-5-(8-methoxy-[1,2,4]triazolo[1,5-a]pyridin-6-yl)-1-((1s,4s)-4-(oxetan-3-ylamino)cyclohexyl)-1,3-dihydro-2H-benzo[d]imidazol-2-one] | 1.27 nM | 20000 nM |
| CCc1cc2c(cc1-c1cc(OC)c3ncnn3c1)[nH]c(=O)n2[C@@H]1CCCN(CC)C1 [Example 171, (R)-6-ethyl-1-(1-ethylpiperidin-3-yl)-5-(8-methoxy-[1,2,4]triazolo[1,5-a]pyridin-6-yl)-1,3-dihydro-2H-benzo[d]imidazol-2-one] | 3.03 nM | 10700 nM |
| CCc1cc2c(cc1-c1cc(OC)c3ncnn3c1)[nH]c(=O)n2[C@@H]1CCCN(C(C)C)C1 [Example 172, (R)-6-ethyl-1-(1-isopropylpiperidin-3-yl)-5-(8-methoxy-[1,2,4]triazolo[1,5-a]pyridin-6-yl)-1,3-dihydro-2H-benzo[d]imidazol-2-one] | 1.75 nM | 6830 nM |
| CCc1cc2c(cc1-c1cc(OC)c3ncnn3c1)[nH]c(=O)n2[C@@H]1CCCN(C2COC2)C1 [Example 173, (R)-6-ethyl-5-(8-methoxy-[1,2,4]triazolo[1,5-a]pyridin-6-yl)-1-(1-(oxetan-3-yl)piperidin-3-yl)-1,3-dihydro-2H-benzo[d]imidazol-2-one] | 18 nM | > 50000 nM |
| CCc1cc2c(cc1-c1cc(OC)c3ncnn3c1)[nH]c(=O)n2[C@@H]1CCCN(C)C1 [Example 174, (R)-6-ethyl-5-(8-methoxy-[1,2,4]triazolo[1,5-a]pyridin-6-yl)-1-(1-methylpiperidin-3-yl)-1,3-dihydro-2H-benzo[d]imidazol-2-one] | 1.39 nM | 7340 nM |
| CCc1cc2c(cc1-c1cc(OC)c3ncnn3c1)[nH]c(=O)n2[C@@H]1CCCN(CC2CCOCC2)C1 [Example 175, (R)-6-ethyl-5-(8-methoxy-[1,2,4]triazolo[1,5-a]pyridin-6-yl)-1-(1-((tetrahydro-2H-pyran-4-yl)methyl)piperidin-3-yl)-1,3-dihydro-2H-benzo[d]imidazol-2-one] | 2.23 nM | 7390 nM |
| CCc1cc2c(cc1-c1cc(OC)c3ncnn3c1)[nH]c(=O)n2[C@@H]1CCCN(CC(C)C)C1 [Example 177, (R)-6-ethyl-1-(1-isobutylpiperidin-3-yl)-5-(8-methoxy-[1,2,4]triazolo[1,5-a]pyridin-6-yl)-1,3-dihydro-2H-benzo[d]imidazol-2-one] | 4.34 nM | 10700 nM |
| CCc1cc2c(cc1-c1cc(OC)c3ncnn3c1)[nH]c(=O)n2[C@@H]1CCCN(CC(CC)CC)C1 [Example 178, (R)-6-ethyl-1-(1-(2-ethylbutyl)piperidin-3-yl)-5-(8-methoxy-[1,2,4]triazolo[1,5-a]pyridin-6-yl)-1,3-dihydro-2H-benzo[d]imidazol-2-one] | 2.62 nM | 7470 nM |
| CCCN1CCC[C@@H](n2c(=O)[nH]c3cc(-c4cc(OC)c5ncnn5c4)c(CC)cc32)C1 [Example 179, (R)-6-ethyl-5-(8-methoxy-[1,2,4]triazolo[1,5-a]pyridin-6-yl)-1-(1-propylpiperidin-3-yl)-1,3-dihydro-2H-benzo[d]imidazol-2-one] | 2.48 nM | 6860 nM |
| CCc1cc2c(cc1-c1cc(OC)c3ncnn3c1)[nH]c(=O)n2[C@@H]1CCCN(CC(C)(C)C)C1 [Example 180, (R)-6-ethyl-5-(8-methoxy-[1,2,4]triazolo[1,5-a]pyridin-6-yl)-1-(1-neopentylpiperidin-3-yl)-1,3-dihydro-2H-benzo[d]imidazol-2-one] | 4.29 nM | 10300 nM |
